Test results from patent US6890959B2, “Aminomethyl-phenyl-cyclohexanone derivatives” (Gruenenthal GmbH, priority 2000, dated 2005).
Structures can show the parent of a compound that is named as a salt.

Test system: Male NMRI mice
Experiment: phenylquinone-induced writhing test in mice
Type: in vivo
Conditions: 10 mg/kg i.v.; phenylquinone i.p. 10 minutes after compound; writhing counted 5-20 minutes after phenylquinone
Method: The antinociceptive activity of the compounds according to the invention was investigated in mice in a phenylquinone-induced writhing test, as modified by I. C. Hendershot, J. Forsaith, J. Pharmacol. Exp. Ther. 125, 237-240 (1959). Male NMRI mice weighing 25-30 g were used. Groups of 10 animals per substance dose received 0.3 ml/mouse of a 0.02% aqueous solution of phenylquinone (phenylbenzoquinone, Sigma, Deisenhofen; preparation of the solution with the addition of 5% ethanol and storage in a water bath at 45° C.) administered intraperitoneally 10 minutes after intravenous administration of a compound according to the invention. The animals were placed individually in observation cages. The number of pain-induced stretching movements (so-called writhing reactions, i.e. straightening of the body with stretching of the hind extremities) was counted by means of a push-button counter for 5-20 minutes after the administration of phenylquinone. Animals which received physiological saline solution i.v. and […]. were also used as a control.
All substances were tested in a standard dose of 10 mg/kg. The percentage inhibition (% inhibition) of the writhing reactions by a substance was calculated according to the following equation: % inhibition=100−[WR treated animals/WR control×100]

Molecule: COc1cccc(C2CC(=O)CCC2CN(C)C)c1 (racemic) [Compound 2, rac-cis-[4-Dimethylaminomethyl-3-(3-methoxy-phenyl)-cyclohexanone]hydrochloride]
- % inhibition of the writhing reactions: 96%

Molecule: rac-trans-[4-dimethylaminomethyl-3-(3-methoxy-phenyl)-cyclohexanone]hydrochloride [Compound 3]
- % inhibition of the writhing reactions: 92%

Molecule: rac-cis-[4-Dimethylaminomethyl-3-(3-hydroxy-phenyl)-cyclohexanone [Compound 4]
- % inhibition of the writhing reactions: 100%
